1 compound from US9687480B2, “Chiral 1-(4-methylphenylmethyl)-5-oxo-{N-[(3-t-butoxycarbonyl-aminomethyl)]-piperidin-1-yl)-pyrrolidine as inhibitors of collagen induced platelet activation and adhesion” (Council of Scientific & Industrial Research, priority 2011, dated 2017) can be followed below.

For one test, the system named is human platelets. Briefly: Intracellular calcium mobilization in Fura-2 loaded platelets stimulated by collagen. The class given is cell-based. Particulars: Fura-2 loaded human platelets, collagen 5 μg/ml. The procedure:
Ca^+2 concentration ([Ca^+2]i) were monitored by Fura-2AM fluorescence in the platelets (Fowler C J. Tiger G Calibration of Fura-2 signals introduces errors into measurement of thrombin-stimulated calcium mobilization in human platelets. Clinica Chimica Acta. 1997; 265:247-261). Human PRP was incubated with 5 μM Fura-2 AM (Sigma) for 60 minutes at 37° C. After 2 washes with the wash buffer, the platelets were resuspended at 2×10^6 cells/mL with the Tyrode's-HEPES buffer. After incubating with various concentrations of compound for 5 minutes, the platelets were stimulated with collagen (5 μg/mL)(the concentration of collagen was varied in accordance with cell number). The Fura-2 fluorescence was measured for 5 minutes at an excitation wavelength of 340/380 nm and emission wavelength of 500 nm (Yoshida S., Sudo T., Niimi M., Tao L., Sun B., Kambayashi J., Watanabe H., Luo E., and Matsuoka H. Inhibition of collagen-induced platelet aggregation by anopheline antiplatelet protein, a saliva protein from a malaria vector mosquito. Blood 2007; 111: 2007-201) using a fluorescence spectrophotometer (VARIAN, Cary Eclipse).
On the technique in general: Calcium assays in cells follow changes in intracellular calcium, usually with a dye or a luminescent sensor.

A further test has as its system mouse platelets. Briefly: Platelet adhesion over collagen matrix (mice, ex vivo). The note with it: oral route, compound 6 10, 30, 100 μM/kg, aspirin 100 μM/kg. The class given is in vivo. From the text: FIG. 4b: Adhesion of mouse platelets on collagen matrix as observed under fluorescence microscope 40× (ex vivo method). Different pictures show the different treatment performed. Washed murine platelets (2×10^6/ml) were obtained from animals pretreated with the compound (compound 6) (different doses) and seeded on BSA or Collagen (fibrillar) coated cover slips (A, B). Platelets from untreated animals were allowed to adhere on uncoated and BSA coated cover slip respectively to delineate the possibility of non specific binding. C, D. control platelets were adhered on collagen coated cover slip (control). E. F&G. Platelets obtained from animals pre-treated with compound 6 (10 μM/kg, 30 μM/kg & 100 μM/kg) respectively were adhered on collagen coated cover slip. H, I. Platelets from Aspirin (100 μM/kg) & Clopidogrel treated (100 μM/kg) animals resp. (standard Drugs) and adhered on collagen coated cover slip (n=5, 5 animals/group/experiment).

Test [1] concerns collagen stimulated platelets. Briefly: Immunoblotting: tyrosine phosphorylation of platelet proteins after collagen stimulation. The class given is cell-based, human. Particulars: 10-100 μM. How it is done:
Platelet rich plasma (2×10^8/ml) was pre-incubated with test compound (10-100 μM) or the isovolumetric solvent control (0.5% DMSO) for 5 minutes, followed by the addition of collagen, to trigger platelet activation. The reaction was stopped by the addition of ice cold stop buffer (5 mM EDTA, 5 mM EGTA) and the suspensions were centrifuged at 800×g for 10 minutes and then immediately resuspended in 300 μl of lysis buffer (50 mM HEPES, 5 mM EDTA, 50 mM NaCl, 1% Triton X-100, 10 μg/ml aprotinin, 1 mM PMSF, 10 μg/ml leupeptin, 10 mM NaF, 1 mM sodium orthovanadate, and 5 mM sodium pyrophosphate) (Ezumi Y. Shindoh K, Tsuji M, and Takayama H Physical and Functional Association of the Src Family Kinases Fyn and Lyn with the Collagen Receptor Glycoprotein VI-Fc Receptorg Chain Complex on Human Platelets. J. Exp. Med. 1998; 188: 287-[…]). Lysates were centrifuged at 12,000×g for 5 minutes, after which the supernatants were dissolved in Laemmeli sample buffer (Laemmeli, 1970). […] Immunoreactive bands were detected by chemiluminescence using the ECL-enhanced chemiluminescence system (Inoue K, Ozaki Y, Satoh K, u Y, Yatomi Y, Shin Y and Morita T Signal Transduction Pathways Mediated by Glycoprotein Ia/IIa in Human Platelets: Comparison with those of Glycoprotein VI. Biochem. I and Biophys. Res. Comm. 1999; 256: 114-120).

For the compound `Cc1ccc(CN2C(=O)CC[C@H]2C(=O)N2CCC[C@@H](CNC(=O)OC(C)(C)C)C2)cc1` [Compound 6], in the test on human platelets, the “calcium mobilization ([Ca2+]i) during collagen stimulation” value was “concentration dependent inhibition”. Further, in the test with mouse platelets, the “platelet adhesion (ex vivo) over collagen surface” value is listed as “dose dependent inhibition”. The “tyrosine phosphorylation of platelet proteins” value in test [1] was “attenuated the tyrosine phosphorylation”.
